The numbers were not newly measured in patent US20230210786A1, “METHOD FOR SO[…], […] […] CANNABINOIDS” (ATHENION AG, priority 2020, published 2023), which cites them from elsewhere.

The conditions of this data set: in vivo.

Take `CCCCCc1cc(O)c2c(c1)OC(C)(C)[C@@H]1CCC(C)=C[C@@H]21` [THC, (-)-trans-Δ^9-tetrahydrocannabinol]: the “apparent volume of distribution” value is 10 L/kg and the plasma protein binding entry was “ca. 97%”.
